Data reported in patent US8383852B2, “Compounds having a cyclic moiety and compositions for delivering active agents” (Emisphere Technologies, Inc., priority 2007, dated 2013).

System: male, Sprague-Dawley rats
Assay: Oral delivery of insulin in rats: change in whole blood glucose after insulin plus delivery agent
Format: in vivo, rat
Details: oral gavage
Procedure: Human recombinant insulin (ICN Biomedicals, Aurora, Ohio) was dissolved in deionized water (ph ˜6.5) to obtain stock insulin solutions having a concentration of 15 mg/ml. 3-[4-(cyclopropylmethoxy)phenyl]propanoic acid (Emisphere Technologies, Tarrytown, N.Y.) was dissolved in deionized water to obtain a 200 mg/ml delivery agent solution. The free acid form of delivery agent as converted to the sodium salt by adding one equivalent of sodium hydroxide. Solutions were vortexted, sonicated, and heated. If necessary, additional sodium hydroxide was added in μl quantities to achieve uniform solubility in the delivery agent solutions. Solutions were adjusted to a pH of 3.5-8.5 by the addition of either hydrochloric acid or sodium hydroxide, as appropriate. The insulin stock solution was then added to the delivery agent solutions to obtain an administration solution ultimately having an insulin concentration of 0.5 mg/ml. After solubilization and drug addition, administration solutions were brought to a final volume by the addition of deionized water.
Insulin was administered to male, Sprague-Dawley rats either alone or in combination with delivery agent by oral gavage (PO). Typically, rats were fasted for 18-24 hours prior to dosing. A Rusch 8 French catheter was cut to 11 cm in length and adapted to fit a 1 ml syringe. The syringe was filled with dosing solution and the catheter was inserted into the rat mouth and fed down the esophagus (10.0 cm). The dosing solution was delivered by pressing the syringe plunger while holding the rat in an upright position. The doses of delivery agent and
[…] The dose volume was 1 ml/kg. The weight of the rats in this invention ranges from 250 to 300 grams. The rat was weighted prior to the test and the dose volume was adjusted accordingly.
Immediate to each blood sampling point, rats were exposed briefly (˜10 seconds) to carbon dioxide until prostrate. A 77-mm capillary tube was inserted into the retroorbital sinus. Typically, blood samples were collected prior to dosing (time=0) and at 15, 30, 45, and 60 minutes after dosing.
To determine the pharmacodynamic response, a hand-held glucometer (OneTouch Ultra, LifeScan—Johnson & Johnson, New Brunswick, N.J.) was used to measure whole blood glucose after administration of insulin or insulin and delivery agent. After discarding the first drop of blood, a small sample (˜5-10 μls) was touched to the glucometer test strip (OneTouch Ultra, LifeScan) and a blood glucose reading was generated by the meter. Typically, samples were collected prior to dosing (time 0) and at 15, 30, 45, and 60 minutes after dosing.

[1] = 15 min., insulin/delivery agent = 0.5 mg/200 mg per kg
[2] = 30 min., insulin/delivery agent = 0.5 mg/200 mg per kg
[3] = 45 min., insulin/delivery agent = 0.5 mg/200 mg per kg
[4] = 60 min., insulin/delivery agent = 0.5 mg/200 mg per kg
[5] = time 0, insulin/delivery agent = 0.5 mg/200 mg per kg

Row | Compound | Percent change in whole blood glucose from baseline (negative = reduction) [1] | Percent change in whole blood glucose from baseline (negative = reduction) [2] | Percent change in whole blood glucose from baseline (negative = reduction) [3] | Percent change in whole blood glucose from baseline (negative = reduction) [4] | Percent change in whole blood glucose from baseline (negative = reduction) [5]
1 | O=C(O)CCc1ccc(OCC2CC2)cc1 [Compound 1, 3-[4-(cyclopropylmethoxy)phenyl]propanoic acid] | −17.26% | −38.35% | −43.75% | −42.48% | −4.64%
2 | O=C(O)c1ccc(OCC2CCC2)cc1 [Compound 2, 4-(cyclobutylmethoxy)benzoic acid] | −20.04% | −32.2% | −32.51% | −19.95% | 7.51%
3 | COc1cc(CC(=O)O)ccc1OCC1CCC1 [Compound 3, [4-(cyclobutylmethoxy)-3-methoxyphenyl]acetic acid] | −15.04% | −22.90% | −21.04% | −19.74% | 6.88%
4 | O=C(O)c1ccc(OCC2CC2)cc1 [Compound 4, 4-(cyclopropylmethoxy)benzoic acid] | −11.80% | −32.15% | −21.14% | −16.78% | 1.72%
5 | O=C(O)Cc1ccc(OCC2CC2)cc1 [Compound 5, [4-(cyclopropylmethoxy)phenyl]acetic acid] | −17.53% | −26.944% | −22.92% | −18.62% | −1.91%
6 | O=C(O)c1ccccc1OCC1CCC1 [Compound 6, 2-(cyclobutylmethoxy)benzoic acid] | −9.25% | −20.51% | −2.61% | −2.75% | 6.37%
7 | COc1cc(CC(=O)O)ccc1OC1CCCC1 [Compound 7, [4-(cyclopentyloxy)-3-methoxyphenyl]acetic acid] | −7.15% | −17.37% | −12.75% | −12.77% | 11.87%
8 | COc1cc(CC(=O)O)ccc1OCC1CC1 [Compound 8, [4-(cyclopropylmethoxy)-3-methoxyphenyl]acetic acid] | −1.61% | −14.21% | −16.12% | −18.19% | 18.75%
9 | O=C(O)c1ccccc1OCC1CC1 [Compound 9, 2-(cyclopropylmethoxy)benzoic acid] | −1.29% | −6.99% | −11.40% | −11.75% | −1.59%
10 | O=C(O)c1ccccc1OC1CCCC1 [Compound 10, 2-(cyclopentyloxy)benzoic acid] | −6.94% | −25.22% | −29.27% | −29.91% | +16.39%
11 | O=C(O)c1ccccc1OCC1CCCCC1 [Compound 11, 2-(cyclohexylmethoxy)benzoic acid] | −4.82% | −6.23% | −19.71% | −19.54% | −1.27%
